# Measured values taken from patent US20040235792A1, “Serine protease inhibitors compromising a hydrogen-bond acceptor” (priority 2001, published 2004).
# Where a SMILES comes first, the peptide text is derived from it. [ ]: non-standard residue; d: D form. dPip = O=C(O)[C@H]1CCCCN1
# Assays:
# thrombin = thrombin (Homo sapiens, UniProt P00734); conditions: cited from earlier work; for KassThr/KassThy: selectivity ratio
# protein Ca = protein Ca (Homo sapiens, UniProt P04070); conditions: read-out: IC50 (protein Ca system); cited from earlier work
# FIXa = target: T1, FIXa (Homo sapiens, UniProt P00740); experiment: Score assay, FIXa (chromogenic substrate Pefachrome IXa); assay type: biochemical; design: key: fold increase in inhibitor conc / inhibitor conc used (mM); conditions: Score = fold increase in inhibitor concentration / concentration of inhibitor used (in mM), 37° C., pH 7.4
# T1 construct: FIXa was obtained from Haematologics; purchased Haematologics
# Experimental: (§1) Score gives a facile measure of the effectiveness of an inhibitor requiring only one or two data points, rather than the twelve or more data points required to calculate an IC50.
# (§2) The principle behind calculating the score is that, although the absolute values obtained from inhibitors of the same type may be different, the shape and range of the IC50 curves are quite similar.
# (§3) Molecular Devices Corp. Thermomax plate reader.
# Pefachrome IXa (Kordia, for FIXa)
# (§4) Buffer for FIXa assay: 50 mM Tris; 100 mM sodium chloride; 0.5% PEG 6000, pH 7.4. The aqueous buffer was freshly mixed each day with ethylene glycol (65%:35% respectively) Human α-thrombin was obtained from J. Freysinnet (Strasbourg).
# FIXa was obtained from Haematologics.
# FIXa (50 μl of a stock at 0.01 mg/ml) is added.
# (§5) The data from IC50 curves for 13 compounds were used to construct an average IC50 curve.
# (§6) The average values for the fold increase at each 10% step are shown below:
# (§7) Measurement of single concentrations of inhibitor on a plate reader (using MDC ‘Softmax’ software) gave a value from 9 to 0 when compared to a control without inhibitor which corresponds to the % inhibition a shown in Table 1. Provided that the plate reader number was >2 but <8 (linear part of the graph) the score could then be calculated as follows.
# (§8) Score=fold increase in inhibitor concentration (see table 1)/concentration of inhibitor used (in mM)
# Human α-thrombin = target: T2, Human α-thrombin (Homo sapiens, UniProt P00734); experiment: Score assay, Thr (chromogenic substrate S-2238); assay type: biochemical; conditions: Score = fold increase in inhibitor concentration / concentration of inhibitor used (in mM), 37° C., pH 7.4
# T2 construct: Human α-thrombin was obtained from J. Freysinnet (Strasbourg); purchased J. Freysinnet (Strasbourg)
# Description: as §1, §2, §3
# S-2238 (H-D-Phe-Pip-Arg-pNA, for Thr) was obtained from Quadratech.
# (§9) Buffer for Thr, Try, Pla, UK or Xa assay: 0.1M sodium phosphate; 0.2M sodium chloride; 0.5% PEG6000; 0.02% sodium azide, pH 7.4.
# as §4
# Inhibitor (100 μl of dilution in buffer of 1/20 or higher as appropriate from stock in DMSO) is added to substrate (50 μl of a dilution of 1/100 of 2.4 mg/ml stock) for 2 minutes at 37° C. Thr (50 μl of a dilution of {fraction (1/10,000)} of stock at 1 mg/ml) is added.
# as §5, §6, §7, §8
# Try (trypsin) = Try (trypsin) (Homo sapiens, UniProt P07477); experiment: Score assay, Try (chromogenic substrate S-2288); assay type: biochemical; design: key: score = fold increase in inhibitor conc / inhibitor conc used (mM); conditions: Table 3, substrate 25 μM
# Description: as §1, §2, §3
# S-2288 (H-D-Ileu-Pro-Arg-pNa for Try) was obtained from Quadratech.
# as §9
# (§10) Final Substrates Concentrations were 25 μM, 113 μM, 22 μM and 125 μM for Try, Pla, Xa and UK Respectively.
# as §5, §6, §7, §8
# Xa (factor X activated) = Xa (factor X activated) (Homo sapiens, UniProt P00742); experiment: Score assay, Xa (chromogenic substrate S-2765); assay type: biochemical; design: key: score = fold increase in inhibitor conc / inhibitor conc used (mM); conditions: Table 3, substrate 22 μM
# Description: as §1, §2, §3
# S-2765 (N-α-Z-D-ArgGly-Arg-pNa for Xa) was obtained from Quadratech.
# as §9, §10, §5, §6, §7, §8
# Pla (plasmin) = Pla (plasmin) (Homo sapiens, UniProt P00747); experiment: Score assay, Pla (chromogenic substrate S-2251); assay type: biochemical; conditions: Table 3, substrate 113 μM
# Description: as §1, §2, §3
# S-2251 (H-D-Val-Leu-Lys-pNa for Pla) was obtained from Quadratech.
# as §9, §10, §5, §6, §7, §8
# UK (urokinase) = UK (urokinase) (Homo sapiens, UniProt P00749); experiment: Score assay, UK (chromogenic substrate S-2444); assay type: biochemical; design: key: score = fold increase in inhibitor conc / inhibitor conc used (mM); conditions: Table 3, substrate 125 μM
# Description: as §1, §2, §3
# S-2444 (pyro-Glu-Gly-Arg-pNa for UK) was obtained from Quadratech.
# as §9, §10, §5, §6, §7, §8
# [1] = cited from earlier work
# [2] = Table 1 comparators, single concentration, higher = more effective
# [3] = Table 1 comparators, single concentration
# Xa (factor X activated), sequence (P00742 235-488 limits assumed): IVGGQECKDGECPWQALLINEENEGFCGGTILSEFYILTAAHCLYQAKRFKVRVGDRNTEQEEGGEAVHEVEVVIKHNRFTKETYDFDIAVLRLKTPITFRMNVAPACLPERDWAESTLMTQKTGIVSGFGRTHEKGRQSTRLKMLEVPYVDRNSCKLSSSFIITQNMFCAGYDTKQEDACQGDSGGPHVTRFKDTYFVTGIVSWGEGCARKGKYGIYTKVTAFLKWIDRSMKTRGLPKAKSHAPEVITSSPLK
# Xa (factor X activated), sequence (P00742 41-179 partner limits assumed): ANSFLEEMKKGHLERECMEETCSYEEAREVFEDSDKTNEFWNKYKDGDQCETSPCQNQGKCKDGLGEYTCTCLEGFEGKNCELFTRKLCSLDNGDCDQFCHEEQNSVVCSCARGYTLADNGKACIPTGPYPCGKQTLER
# T1 sequence (P00740 227-461 limits assumed): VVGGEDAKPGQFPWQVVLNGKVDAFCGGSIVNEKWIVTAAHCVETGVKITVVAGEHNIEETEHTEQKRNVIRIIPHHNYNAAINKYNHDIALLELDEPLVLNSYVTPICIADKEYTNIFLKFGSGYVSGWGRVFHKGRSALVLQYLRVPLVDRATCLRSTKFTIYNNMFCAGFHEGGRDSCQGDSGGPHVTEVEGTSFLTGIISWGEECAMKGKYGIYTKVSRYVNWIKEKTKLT
# T1 sequence (P00740 47-191 partner limits assumed): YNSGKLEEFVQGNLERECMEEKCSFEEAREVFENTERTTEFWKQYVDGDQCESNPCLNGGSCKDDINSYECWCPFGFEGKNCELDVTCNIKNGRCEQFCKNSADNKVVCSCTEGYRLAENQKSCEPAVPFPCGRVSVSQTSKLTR
# Pla (plasmin), sequence (P00747 581-810 limits assumed, species assumed): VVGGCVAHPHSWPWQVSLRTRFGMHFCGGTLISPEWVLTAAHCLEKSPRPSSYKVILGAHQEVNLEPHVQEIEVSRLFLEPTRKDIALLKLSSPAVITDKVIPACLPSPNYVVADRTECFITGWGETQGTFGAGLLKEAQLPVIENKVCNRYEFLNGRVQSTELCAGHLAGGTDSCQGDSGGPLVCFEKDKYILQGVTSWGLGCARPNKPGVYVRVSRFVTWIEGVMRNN
# Pla (plasmin), sequence (P00747 97-580 partner limits assumed, species assumed): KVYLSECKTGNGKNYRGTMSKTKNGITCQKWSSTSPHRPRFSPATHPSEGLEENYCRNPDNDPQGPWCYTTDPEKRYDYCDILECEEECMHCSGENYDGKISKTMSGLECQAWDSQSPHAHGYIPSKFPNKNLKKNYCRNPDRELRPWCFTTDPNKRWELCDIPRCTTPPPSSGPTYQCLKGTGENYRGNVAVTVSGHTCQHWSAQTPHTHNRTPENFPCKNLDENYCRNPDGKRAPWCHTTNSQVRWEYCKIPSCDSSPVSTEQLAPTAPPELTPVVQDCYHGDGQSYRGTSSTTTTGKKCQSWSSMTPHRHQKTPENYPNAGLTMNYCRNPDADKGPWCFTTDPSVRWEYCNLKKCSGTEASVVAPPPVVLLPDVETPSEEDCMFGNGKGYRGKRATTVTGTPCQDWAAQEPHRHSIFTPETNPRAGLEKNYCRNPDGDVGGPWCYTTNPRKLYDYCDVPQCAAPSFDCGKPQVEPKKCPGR
# protein Ca, sequence (P04070 212-461 limits assumed): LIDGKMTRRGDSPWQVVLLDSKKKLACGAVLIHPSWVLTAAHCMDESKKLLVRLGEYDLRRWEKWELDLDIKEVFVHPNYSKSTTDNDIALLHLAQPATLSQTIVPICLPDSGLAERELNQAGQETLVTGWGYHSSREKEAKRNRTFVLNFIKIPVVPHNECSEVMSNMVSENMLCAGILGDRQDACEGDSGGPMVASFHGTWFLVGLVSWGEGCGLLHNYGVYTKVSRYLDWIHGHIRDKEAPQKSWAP
# protein Ca, sequence (P04070 43-197 partner limits assumed): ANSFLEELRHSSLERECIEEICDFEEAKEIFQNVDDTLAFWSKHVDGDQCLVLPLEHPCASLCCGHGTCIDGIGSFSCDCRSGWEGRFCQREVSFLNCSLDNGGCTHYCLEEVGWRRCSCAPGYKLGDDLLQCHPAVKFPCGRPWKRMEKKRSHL
SMILES,FIXa score (FIXa; Table 3),Thr Score (Human α-thrombin; Table 3),Try (score) (Try (trypsin)),Xa (score) (Xa (factor X activated)),Pla (score) (Pla (plasmin)),UK (score) (UK (urokinase)),also measured
CC(C)N(CC(=O)N[C@H](C=O)CCCNC(=N)N)C(=O)[C@H]1CCCCN1 [D-hPro-(Nα-isopropyl)Gly-Arg-H],–,–,–,–,–,–,KassThr/KassThy (thrombin): 20
N=C(N)NCCC[C@@H](C=O)NC(=O)[C@@H]1CCCN1C(=O)[C@H]1CCCCN1 [D-hPro-Pro-Arg-H] (H-[dPip]-Pro-Arg-aldehyde),–,–,–,–,–,–,KassThr (thrombin): 2e+06 L/mol
"CC(=O)NC(Cc1ccccc1)C(=O)N1CCCC1C(=O)NC(CCCNC(=N)N)B(O)O [DuP 714, Ac-D-Phe-Pro-boro Arg-OH]",–,–,–,–,–,–,IC50 (protein Ca): 750 nM
"CN[C@H](Cc1ccccc1)C(=O)N1CCC[C@H]1C(=O)N[C@H](C=O)CCCN=C(N)N [LY294468, H-D-MePhe-Pro-Arginal]",–,–,–,–,–,–,KassThr (thrombin): 5.4e+06 L/mol; KassThr/KassThy (thrombin): 5.1
CC1(C)OB(c2ccccc2CSC(=N)N)OC1(C)C [compound 832],7,70,7,7,1,26,–
CC1(C)OB(c2cccc(CSC(=N)N)c2)OC1(C)C [compound 852],76,326,624,624,393,792,–
N=C(N)SCc1cccc(B(O)O)c1 [compound 864],209,421,868,868,289,776,–
N=C(N)SCc1ccccc1B(O)O [compound 865],5.4,70,7,7,3,26,–
Br.N=C(N)SCc1cccc(I)c1 [compound 885],–,–,–,–,–,–,FIXa score (FIXa; [2]): 0.6; Thr Score (Human α-thrombin; [3]): 10
Br.COC(=O)c1cccc(CSC(=N)N)c1 [compound 887],–,–,–,–,–,–,FIXa score (FIXa; [2]): 0.9; Thr Score (Human α-thrombin; [3]): 5.3
N=C(N)SCc1cccc([N+](=O)[O-])c1 [compound 896],2,295,4,4,2,3,–
CN=C(N)SCc1cccc(B(O)O)c1 [compound 903],19,38.7,21,39,21,27,–
Br.N=C(N)NC(=N)Nc1cc(F)cc(F)c1Br [compound 929],–,–,–,–,–,–,FIXa score (FIXa; [2]): 1.6; Thr Score (Human α-thrombin; [3]): 0
Br.Cc1ccc(I)cc1NC(=N)NC(=N)N [compound 930],–,–,–,–,–,–,FIXa score (FIXa; [2]): 0.6; Thr Score (Human α-thrombin; [3]): 0
Br.CC(C)c1ccc(NC(=N)NC(=N)N)c(Br)c1 [compound 931],–,–,–,–,–,–,FIXa score (FIXa; [2]): 0.8; Thr Score (Human α-thrombin; [3]): 7.7
Br.N=C(N)NC(=N)Nc1ccc(I)cc1 [compound 932],–,–,–,–,–,–,FIXa score (FIXa; [2]): 0.3; Thr Score (Human α-thrombin; [3]): 0
COc1ccc(CSC(=N)N)cc1B1OC(C)(C)C(C)(C)O1 [compound 973],32,1210,167,167,121,1210,–
CC(SC(=N)N)c1cccc(B2OC(C)(C)C(C)(C)O2)c1 (centres unmarked) [compound 974],64,6769,324,680,324,934,–
CC1(C)OB(c2ccc(Oc3cccc(Cl)c3)c(CSC(=N)N)c2)OC1(C)C [compound 1057],157,572,–,–,–,–,–
COc1cccc(Oc2ccc(B3OC(C)(C)C(C)(C)O3)cc2CSC(=N)N)c1 [compound 1058],97,666,–,–,–,–,–
N#Cc1cccc(Oc2ccc(B(O)O)cc2CSC(=N)N)c1 [compound 1069],229,4156,–,–,–,–,–
c1ccc2ncccc2c1 [quinoline],–,–,–,–,–,–,pKa [1]: 4.0

# Now from value to compound, other results behind:
FIXa score (FIXa; Table 3),Thr Score (Human α-thrombin; Table 3),Try (score) (Try (trypsin)),Xa (score) (Xa (factor X activated)),Pla (score) (Pla (plasmin)),UK (score) (UK (urokinase)),SMILES,also measured
6.4,6.4,440,6,32,3076,N=C(N)SCc1ccc(B(O)O)cc1 [compound 866],–
10.1,2.0,2,1,1,4,CC(=O)NNC(=N)SCc1cccc(B(O)O)c1 [compound 915],–
205,1645,3,905,312,785,Cc1cc(CSC(=N)N)cc(B(O)O)c1 [compound 967],–
59.6,1215,640,1862,640,880,N=C(N)SCc1cc(CSC(=N)N)cc(B(O)O)c1 [compound 968],–
80,12,–,–,–,–,CC(C)(C)OC(=O)N=C(N)N(Cc1cccc(B2OC(C)(C)C(C)(C)O2)c1)C(=O)OC(C)(C)C [compound 970],–
306,333,583,889,583,583,N=C(N)SCc1cc(B(O)O)ccc1Oc1ccccc1 [compound 977],–
46,106,37,51,27,70,CC1(C)OB(c2cccc(CNC(=N)N)c2)OC1(C)C [compound 1006],–
39.0,15(*),–,–,–,–,CC1(C)OB(c2ccc(N3CCN(c4ccccn4)CC3)c(CSC(=N)N)c2)OC1(C)C [compound 1031],–
291,2768,–,–,–,–,CC1(C)OB(c2ccc(Oc3ccccc3)c(CSC(=N)N)c2)OC1(C)C [compound 1055],–
626,455,–,–,–,–,CC1(C)OB(c2ccc(Oc3ccc(Oc4ccccc4)cc3)c(CSC(=N)N)c2)OC1(C)C [compound 1056],–
285,1959,–,–,–,–,CC(C)Cc1ccc(Oc2ccc(B3OC(C)(C)C(C)(C)O3)cc2CSC(=N)N)cc1 [compound 1059],–
346,2174,–,–,–,–,N=C(N)SCc1cc(B(O)O)ccc1Oc1ccc2c(c1)CCCC2 [compound 1070],–
746,1410,–,–,–,–,N=C(N)SCc1cc(B(O)O)ccc1Oc1ccc(C(=O)c2ccccc2)cc1 [compound 1072],–
